Publication PMC10860144, “Exploring the Dispersion and Electrostatic Components in Arene–Arene Interactions between Ligands and G4 DNA to Develop G4-Ligands” (Journal of Medicinal Chemistry, 2024)
Values after ≈ are worked out from the molar mass of the structure shown. Values joined by “and” are separate entries in the source; they are usually repeats but may differ in a detail not shown here. Equal entries are not always repeated.

Experiments:
[1] = target: Pu24T c-MYC G4 structure; assay: Kd for binding to the Pu24T c-MYC G4 structure (supplementary CSV); set-up: species or system human
Method: (§1) 5′-Cy5 labeled G4 DNAs for this study were purchased from Eurofins Genomics. Stock solutions were prepared in water at 100 μM concentration. The sequences used are listed in Supporting Information Table S1. The G4 DNA sequences were folded in KCl buffer (10 mM phosphate, 100 mM KCl, pH 7.4) by heating at 95 °C for 5 min and then cooling to room temperature. All the experiments were performed in 10 mM phosphate pH 7.4, 100 mM KCl, and 0.05% Tween20. The labeled DNA concentration is held constant at 25 nM, and ligand concentration is varied depending on ligands Kd (16 1:3 dilutions). The samples were loaded into standard MST graded glass capillaries and initial fluorescence intensity of the capillary was measured using Monolith NT.115 (Nano Temper, Germany) with 20% LED power. The change in fluorescence with ligand’s concentrations were plotted in Excel and fitted through nonlinear equation to obtain the binding constants.
The Supporting Information is available free of charge at https://pubs.acs.org/doi/10.1021/acs.jmedchem.3c02127. • Experimental procedures and data; assay data, computational results, and all cell data; NMR (^1H and ^13C) spectra for all compounds (with the exception of a few intermediates); and HPLC UV traces for the final compounds (PDF) • Molecular formula strings and Kd values for binding to the Pu24T c-MYC G4 structure (CSV)

[2] = Solubility at pH 7.4; assay type: physicochemical
Method: (§2) Physicochemical properties
(§3) The Physicochemical profiling (LogD, Solubility, Caco-2 cell permeability) was performed as previously
(§4) described.8 Cell viability was performed as described below.
(§5) Table S2. Pharmacokinetic Properties
(§6) Compound Structure logD, Solubility, Rat hepsa Human mics b

[3] = Intrinsic clearance in rat hepatocytes; assay type: in vitro ADME
Method: (§7) All compounds (2–11, 25–29) were screened for their logD and solubility at pH 7.4 and for their intrinsic clearance in rat hepatocytes and human microsomes (Table S2). […] Replacing the basic amine side chain to a methyl substituent in the quinazolines (25–29) still retained good solubility (134 to over 1000 μM) but increased clearance in both rat hepatocytes and human microsomes. The logD was low for compounds with a basic amine side chain (2–11) and increased slightly when the amine was replaced with a methyl (25–29). As expected, additional substituents also affected the logD with the chloro-substituents increasing logD the most.
(§8) a Intrinsic clearance in rat hepatocytes ((μL/min)/10^6 cells).b Intrinsic clearance in human microsomes (μL/min/mg). […]

[4] = tested on: G4 structure on DNA template (PEPu24T); assay: Taq polymerase stop (primer extension) assay, G4 template; assay type: biochemical; conditions: compound 0.24 μM; compared to DMSO control
Excerpt: To challenge all the synthesized compounds (2–11 and 25–29) in a more intricate context, we conducted a Taq polymerase stop assay to evaluate their capacity to impede DNA synthesis through G4 stabilization. In this assay, we compared the progress of the Taq DNA polymerase along two distinct DNA templates: one with a G4 structure (Figure 5) and another serving as a non-G4 control (Figure S21). If an external species (e.g., G4 ligand) binds and stabilizes the G4 structure, the polymerase will be partially halted. The extent of this DNA polymerase stalling is dependent on the ability of the compound to stabilize the G4 on the DNA template. The increased G4 stabilization can be detected as a reduction in the amount of newly synthesized DNA that has reached the end of the DNA template (full-length/end-product). Analysis of these shorter terminated DNA products will give information about the precise location of the DNA polymerase stalling with a single nucleotide resolution. If the ligand imposes little to no stabilization or binding, the G4 is readily resolved by the DNA polymerase, and no difference in the amount of DNA end-product can therefore be expected upon the addition of the compound.
Templates for the primer extension assay were created by annealing 25 nt TET labeled primer (1 μM final concentration) to either PEPu24T or a mutated sequence not forming a G4, PEPu24T mut, (1.25 μM final concentration) in 100 mM KCl by heating to 95 °C for 5 min and slowly cooling to room temperature. […] Compounds were added in the indicated concentration and incubated on ice for 10 min before starting the reaction by adding dNTPs (100 μM final concentration) to the reaction and transferring it to 37 °C. Reactions were stopped after 15 min by addition of 10 μL of formamide loading buffer (0.5% SDS, 25 mM EDTA, 95% v/v formamide and xylene-cyanol). Samples were then loaded on a 12% polyacrylamide gel containing 7 M urea and 25% formamide and imaged using an Amersham Typhoon. The images were quantified using ImageJ 1.53e software, and the percentage of full-length product compared to a sample without compound was calculated.
Templates for the primer extension assay were created by annealing 25nt TET labelled primer (1 µM final concentration) to either PEPu24T or a mutated sequence not forming a G4, PEPu24T mut, (1.25 µM final concentration) in 100 mM KCl by heating to 95 °C for 5 min and slowly cooling to room temperature. The reaction mixture (10 µl) contained 1X Taq Buffer with KCl (10 mM Tris-HCl pH 8.8, 50 mM KCl, detergent), 25 mM MgCl2, […]
[…] Compounds were added in the indicated concentration and incubated on ice for 10 min before starting the reaction by adding dNTPs (100 µM final concentration) to the reaction and transferring it to 37 °C. Reactions were stopped after 15 min by addition of 10 µl of formamide loading buffer (0,5% SDS, 25 mM EDTA, 95% v/v formamide and xylene-cyanol). Samples were then loaded on a 12% polyacrylamide gel containing 7 M urea and 25% formamide and imaged using an Amersham™ Typhoon™.
The images were quantified using ImageJ 1.53e software and the percentage of full-length product compared to a sample without compound was calculated. […]

[5] = logD at pH 7.4; assay type: physicochemical
Method: as §2, §3, §4, §5, §6

[6] = Intrinsic clearance in human microsomes; assay type: in vitro ADME; conditions: read-out: Human mics: intrinsic clearance in human microsomes
Method: as §7, §8

[7] = target: c-MYC Pu22 G4 DNA; assay: Microscale thermophoresis (MST), c-MYC Pu22 G4 DNA; assay type: binding, human; conditions: Cy5-labeled c-MYC Pu22 G4 DNA 25 nM; pH 7.4, 100 mM KCl; read-out: apparent Kd (MST)
Method: To evaluate the apparent binding affinities (Kd) for the compound series, we next used microscale thermophoresis (MST) with fluorescently labeled c-MYC Pu22 G4 DNA (Table S1). Overall, the measured MST binding results for compounds 2–11 corresponded well with the results from the FRET assay (Figures 2B and S3).
as §1, with “constants. […]” for “constants.”
Microscale Thermophoresis (MST)
5'- Cy5 labelled G4 DNAs for this study were purchased from Eurofins Genomics. Stock solutions were prepared in water at […] concentration. The sequences used are listed in supplementary Table S1. The G4 DNA sequences were folded in KCl buffer (10 mM phosphate, 100 mM KCl, pH 7.4) by heating at 95 °C for 5 min and then cooling to room temperature. All the experiments were performed in 10 mM phosphate pH 7.4, 100 mM KCl, 0.05% Tween20. The labelled DNA concentration is held constant at 25 nM and ligand concentration is varied depending on ligands Kd (sixteen 1:3 dilutions). The samples were loaded into standard MST graded glass capillaries and initial fluorescence intensity of the capillary were measured using Monolith NT.115 (Nano Temper, Germany) with 20% LED power. The change in fluorescence with ligand's concentrations were plotted in Excel and fitted through non-linear equation to obtain the binding constants.
(1 picture or pasted object on this page, not shown here)

| SMILES | Kd [1] | solubility [2] | Rat heps: intrinsic clearance in rat hepatocytes [3] | full-length DNA product [4] | logD [5] | microsomal CLint [6] | Kd [7] |
| --- | --- | --- | --- | --- | --- | --- | --- |
| Cc1cc(NCCCN(C)C)nc(Nc2nc(C)c3ccccc3n2)n1 [Compound 3, N4-(3-(Dimethylamino)propyl)-6-methyl-N2-(4-methylquinazolin-2-yl)pyrimidine-2,4-diamine] | 150 ± 10 nM | 858 µM (≈ 302 µg/mL) | 4 (μL/min)/106 cells | ~45% | 0 | < 3 µL/min/mg | 150 nM |
| Cc1ccc2nc(Nc3nc(C)cc(NCCCN(C)C)n3)nc(C)c2c1 [Compound 4, N4-(3-(Dimethylamino)propyl)-N2-(4,6-dimethylquinazolin-2-yl)-6-methylpyrimidine-2,4-diamine] | 100 ± 10 nM | > 1000 µM | < 1 (μL/min)/106 cells | about 30% | 0.4 | < 3 µL/min/mg | 100 nM |
| COc1ccc2nc(Nc3nc(C)cc(NCCCN(C)C)n3)nc(C)c2c1 [Compound 6, N4-(3-(Dimethylamino)propyl)-N2-(6-methoxy-4-methylquinazolin-2-yl)-6-methylpyrimidine-2,4-diamine] | 90 ± 10 nM | > 1000 µM | < 1 (μL/min)/106 cells | about 30% | 0.1 | < 3 µL/min/mg | 90 nM |
| Cc1cc(NCCCN(C)C)nc(Nc2nc(C)c3cc(Cl)ccc3n2)n1 [Compound 7, N2-(6-Chloro-4-methylquinazolin-2-yl)-N4-(3-(dimethylamino)propyl)-6-methylpyrimidine-2,4-diamine] | 170 ± 20 nM | 990 µM (≈ 382 µg/mL) | 1 (μL/min)/106 cells | about 30% | 0.9 | < 3 µL/min/mg | 170 nM |
| Cc1cc(NCCCN(C)C)nc(Nc2nc3ccccc3nc2C)n1 [Compound 9, N4-(3-(Dimethylamino)propyl)-6-methyl-N2-(3-methylquinoxalin-2-yl)pyrimidine-2,4-diamine] | > 10000 nM | 871 µM (≈ 306 µg/mL) | 17 (μL/min)/106 cells | – | 0.5 | < 3 µL/min/mg | > 10000 nM |
| Cc1cc(NCCCN(C)C)nc(Nc2nc3cc(C)c(C)cc3nc2C)n1 [Compound 10, N4-(3-(Dimethylamino)propyl)-6-methyl-N2-(3,6,7-trimethylquinoxalin-2-yl)pyrimidine-2,4-diamine] | 2300 ± 500 nM | 838 µM (≈ 318 µg/mL) | 19 (μL/min)/106 cells | – | 1.4 | < 3 µL/min/mg | 2300 nM and 2260 nM |
| Cc1cc(NCCCN(C)C)nc(Nc2nc3cc(Cl)c(Cl)cc3nc2C)n1 [Compound 11, N2-(6,7-Dichloro-3-methylquinoxalin-2-yl)-N4-(3-(dimethylamino)propyl)-6-methylpyrimidine-2,4-diamine] | 3900 ± 700 nM | 646 µM (≈ 272 µg/mL) | 6 (μL/min)/106 cells | – | 2.3 | < 3 µL/min/mg | 3900 nM and 3850 nM |
| Cc1cc(C)nc(Nc2nc(C)c3ccccc3n2)n1 [Compound 25, N-(4,6-Dimethylpyrimidin-2-yl)-4-methylquinazolin-2-amine] | > 15000 nM | > 1000 µM | 17 (μL/min)/106 cells | – | 1.8 | 71 µL/min/mg | > 15000 nM |
| Cc1ccc2nc(Nc3nc(C)cc(C)n3)nc(C)c2c1 [Compound 26, N-(4,6-Dimethylpyrimidin-2-yl)-4,6-dimethylquinazolin-2-amine] | 3300 ± 300 nM | 951 µM (≈ 266 µg/mL) | 20 (μL/min)/106 cells | – | 2.2 | 84 µL/min/mg | 3300 nM |
| COc1ccc2nc(Nc3nc(C)cc(C)n3)nc(C)c2c1 [Compound 28, N-(4,6-Dimethylpyrimidin-2-yl)-6-methoxy-4-methylquinazolin-2-amine] | 3600 ± 700 nM | 271 µM (≈ 80 µg/mL) | 34 (μL/min)/106 cells | – | 1.9 | 22 µL/min/mg | 3600 nM |
| Cc1cc(C)nc(Nc2nc(C)c3cc(Cl)ccc3n2)n1 [Compound 29, 6-Chloro-N-(4,6-dimethylpyrimidin-2-yl)-4-methylquinazolin-2-amine] | > 15000 nM | 134 µM (≈ 40.2 µg/mL) | 9 (μL/min)/106 cells | – | 2.4 | 56 µL/min/mg | > 15000 nM |
